Results: article PMC8226862, “Design, Synthesis and Anticancer Activity of a New Series of N-aryl-N′-[4-(pyridin-2-ylmethoxy)benzyl]urea Derivatives” (Molecules, 2021)

Legend:
[1] = system: A549 (non-small cell lung cancer cell line); experiment: MTT antiproliferative assay, A549; assay type: cell-based, human; conditions: 96 h incubation
Experimental: (§1) The target compounds were evaluated for their antiproliferative activity against different human cancer cell lines, including A549 (non-small cell lung cancer cell line), MCF-7 (breast cancer cell line), HCT116 (colon cancer cell line), PC-3 (prostate cancer cell line) and HL7702 (human liver normal cell line) by using the MTT assay with sorafenib as the control drug.
(§2) The antiproliferative activities of target compounds were determined using a standard MTT assay. Exponentially growing cells A549 (1.5 × 10^3 cells/well), MCF-7 (2.2 × 10^3 cells/well), HCT-116 (800 cells/well), PC-3 (2.0 × 10^3 cells/well) and HL7702 (5.0 × 10^3 cells/well) were seeded into 96-well plates and incubated for 24 h to allow the cells to attach. Then, a fresh medium containing various concentrations of the candidate compounds was added to each well. The cells were then incubated for 96 h, thereafter MTT assays were performed, and cell viability was assessed at 570 nm by a microplate reader (ThermoFisher Scientific (Shanghai) Instrument Co., Ltd., Shanghai, China). The optical densities (OD) at 570 nm were measured, and the IC50 of the target compounds was calculated by using GraphPad Prism 5.0 software to perform nonlinear fitting with the cell survival rate under different concentrations of the compounds.

[2] = system: HL7702 (human liver normal cell line); experiment: MTT cytotoxicity assay, HL7702; assay type: cell-based; conditions: L02, HL7702 normal liver cells, 96 h incubation
Experimental: as §1, §2

[3] = system: HCT116 (colon cancer cell line); experiment: MTT antiproliferative assay, HCT116; assay type: cell-based, human; conditions: 96 h incubation
Experimental: as §1, §2

[4] = system: MCF-7 (breast cancer cell line); experiment: MTT antiproliferative assay, MCF7; assay type: cell-based, human; conditions: 96 h incubation
Experimental: as §1, §2

[5] = system: PC-3 (prostate cancer cell line); experiment: MTT antiproliferative assay, PC3; assay type: cell-based, human; conditions: 96 h incubation
Experimental: as §1, §2

MCF-7 cells = experiment: Cell cycle analysis by flow cytometry (PI staining); assay type: cell-based, human; conditions: for percentage of cells in the G2/M phase: 72 h
Experimental: The effect of compound 9b on the cell cycle was assayed.
[…] After an incubation period, the cells were collected, centrifuged, and fixed with ice-cold ethanol (70%). The cells were then treated with buffer containing RNAse A and 0.1% Triton X-100 and then stained with the propidium iodide (PI). The samples were analyzed on a flow cytometer (Becton, Dickinson, Franklin Lakes, NJ, USA). Data were analyzed using Flowjo software v9.0.

Row | IC50 [1] [µM] | IC50 ([1]; Homo sapiens, A549, 96 h) [µM] | melting point [°C] | IC50 [3] [µM] | IC50 ([3]; Homo sapiens, HCT-116, 96 h) [µM] | IC50 [4] [µM] | IC50 ([4]; Homo sapiens, MCF7, 96 h) [µM] | IC50 [5] [µM] | IC50 ([5]; Homo sapiens, 96 h) [µM] | Structure (SMILES) | IC50 [2] [µM] | percentage of cells in the G2/M phase (MCF-7 cells; MCF-7, 2.5 μM) [%] | percentage of cells in the G2/M phase (MCF-7 cells; MCF-7, 5 μM) [%] | percentage of cells in the G2/M phase (MCF-7 cells; MCF-7, 10 μM) [%] | percentage of cells in the G2/M phase (MCF-7 cells; MCF-7, 20 μM) [%] | effect on the cell cycle (MCF-7 cells; MCF-7, 2.5-20 μM, concentration-dependent)
1 |  | 9.85 ± 4.4 | 159.4 to 161.4 |  | 10.9 ± 2.85 |  | > 50 |  | > 50 | COc1cc(CNC(=O)NCc2ccc(N(C)C)cc2)ccc1OCc1nccc(OCC(F)(F)F)c1C [8i, 1-(4-(dimethylamino)benzyl)-3-(3-methoxy-4-((3-methyl-4-(2,2,2-trifluoroethoxy)pyridin-2-yl)methoxy)benzyl)urea] | > 50 |  |  |  |  | 
2 |  | 6.16 ± 0.46 |  |  | 3.88 ± 0.36 |  | 3.54 ± 0.19 |  | 5.26 ± 0.46 | CNC(=O)c1cc(Oc2ccc(NC(=O)Nc3ccc(Cl)c(C(F)(F)F)c3)cc2)ccn1 [sorafenib, reference compound] | > 50 |  |  |  |  | 
3 | 3.17 ± 0.22 | < 5 | 160.4 to 162.2 | 2.56 ± 0.26 | < 3 | 2.63 ± 0.08 | < 3 | 3.62 ± 0.27 | < 5 | COc1cc(CN(C(=O)Nc2cccc(C(F)(F)F)c2)C2CCN(C)CC2)ccc1OCc1nccc(OCC(F)(F)F)c1C [9d, 1-(3-methoxy-4-((3-methyl-4-(2,2,2-trifluoroethoxy)pyridin-2-yl)methoxy)benzyl)-1-(1-methylpiperidin-4-yl)-3-(3-(trifluoromethyl)phenyl)urea] | > 50 |  |  |  |  | 

More lines, now with the values behind:

Row | Structure (SMILES) | IC50 [1] [µM] | IC50 ([1]; Homo sapiens, A549, 96 h) [µM] | melting point [°C] | IC50 [3] [µM] | IC50 ([3]; Homo sapiens, HCT-116, 96 h) [µM] | IC50 [4] [µM] | IC50 ([4]; Homo sapiens, MCF7, 96 h) [µM] | IC50 [5] [µM] | IC50 ([5]; Homo sapiens, 96 h) [µM] | IC50 [2] [µM] | percentage of cells in the G2/M phase (MCF-7 cells; MCF-7, 2.5 μM) [%] | percentage of cells in the G2/M phase (MCF-7 cells; MCF-7, 5 μM) [%] | percentage of cells in the G2/M phase (MCF-7 cells; MCF-7, 10 μM) [%] | percentage of cells in the G2/M phase (MCF-7 cells; MCF-7, 20 μM) [%] | effect on the cell cycle (MCF-7 cells; MCF-7, 2.5-20 μM, concentration-dependent)
4 | COc1cc(CN(C(=O)Nc2ccc(C(F)(F)F)cc2)C2CCN(C)CC2)ccc1OCc1nccc(OCC(F)(F)F)c1C [9b, 1-(3-methoxy-4-((3-methyl-4-(2,2,2-trifluoroethoxy)pyridin-2-yl)methoxy)benzyl)-1-(1-methylpiperidin-4-yl)-3-(4-(trifluoromethyl)phenyl)urea] | 4.93 ± 0.46 | < 5 | 138.4 to 140.5 | 2.9 ± 0.16 | < 3 | 2.56 ± 0.07 | < 3 | 3.36 ± 0.17 | < 5 | > 50 | 16.7 | 23.5 | 27.7 | 39.3 | obvious G2/M arrest
5 | COc1cc(CN(C(=O)Nc2ccc(OC(F)(F)F)cc2)C2CCN(C)CC2)ccc1OCc1nccc(OCC(F)(F)F)c1C [9a, 1-(3-methoxy-4-((3-methyl-4-(2,2,2-trifluoroethoxy)pyridin-2-yl)methoxy)benzyl)-1-(1-methylpiperidin-4-yl)-3-(4-(trifluoromethoxy)phenyl)urea] |  | 17.5 ± 2.95 | 127.3 to 129.4 |  | 4.41 ± 0.14 | 2.59 ± 0.29 | < 3 | 4.1 ± 0.19 | < 5 | > 50 |  |  |  |  | 
6 | COc1cc(CN(C(=O)Nc2ccc(F)c(Cl)c2)C2CCN(C)CC2)ccc1OCc1nccc(OCC(F)(F)F)c1C [9e, 3-(3-chloro-4-fluorophenyl)-1-(3-methoxy-4-((3-methyl-4-(2,2,2-trifluoroethoxy)pyridin-2-yl)methoxy)benzyl)-1-(1-methylpiperidin-4-yl)urea] |  | 5.48 ± 4.36 | 176.2 to 177.7 |  | 5.82 ± 0.21 | 2.56 ± 0.16 | < 3 | 4.53 ± 0.33 | < 5 | > 50 |  |  |  |  | 
7 | COc1cc(CN(C(=O)Nc2cccc([N+](=O)[O-])c2)C2CCN(C)CC2)ccc1OCc1nccc(OCC(F)(F)F)c1C [9f, 1-(3-methoxy-4-((3-methyl-4-(2,2,2-trifluoroethoxy)pyridin-2-yl)methoxy)benzyl)-1-(1-methylpiperidin-4-yl)-3-(3-nitrophenyl)urea] |  | 6.09 ± 0.29 | 157.5 to 159.1 |  | 5.18 ± 0.33 |  | 3.18 ± 0.3 |  | 7.39 ± 0.63 | > 50 |  |  |  |  | 
8 | COc1cc(CNC(=O)Nc2ccc(F)c(Cl)c2)ccc1OCc1nccc(OCC(F)(F)F)c1C [8b, 1-(3-chloro-4-fluorophenyl)-3-(3-methoxy-4-((3-methyl-4-(2,2,2-trifluoroethoxy)pyridin-2-yl)methoxy)benzyl)urea] |  | 17.7 ± 5.65 | 167.8 to 169.1 |  | 9.33 ± 1.38 |  | 11 ± 1.68 |  | 29.1 ± 5.81 | > 50 |  |  |  |  | 
